Source: publication PMC12362615, “Design, Synthesis, and Cellular Characterization of a New Class of IPMK Kinase Inhibitors” (Journal of Medicinal Chemistry, 2025)
Entries after “also recorded” stand apart in the source; their conditions may differ. Like-named read-outs stand apart in the source and are kept apart here.

How the values were obtained:
[1] = biological target: T1, purified recombinant human IPMK kinase domain (Homo sapiens, UniProt Q8NFU5); assay: IPMK IC50 determination, Kinase-Glo assay; assay type: biochemical
T1 sequence (Q8NFU5 with tags, fused parts or gaps): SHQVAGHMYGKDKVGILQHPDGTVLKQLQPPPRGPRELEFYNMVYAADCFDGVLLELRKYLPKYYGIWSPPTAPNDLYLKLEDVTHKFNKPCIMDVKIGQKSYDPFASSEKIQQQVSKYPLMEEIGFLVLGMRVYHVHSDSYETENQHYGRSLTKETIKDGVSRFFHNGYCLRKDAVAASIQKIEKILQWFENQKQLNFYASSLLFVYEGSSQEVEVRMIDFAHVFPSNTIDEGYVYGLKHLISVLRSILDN
Source text: (§1) These assay conditions were optimized with respect to reaction time, IPMK enzyme concentration, and IP3 concentration to determine the IC50 values for these ATP-competitive compounds.

[2] = test system: purified recombinant human IPMK kinase domain; assay: IPMK IC50 determination, Kinase-Glo assay; assay type: biochemical
Source text: as §1

[3] = test system: inositol phosphate levels in U251-MG cells; assay: 3H-inositol metabolic labeling and HPLC of inositol phosphates; assay type: cell-based, human; conditions: 10 μM, vs DMSO
Experimental: Human U251-MG glioblastoma cells (ECACC 09063001) were grown in DMEM supplemented with 10% FBS. The medium was changed to inositol-free DMEM, and cells were inositol-starved for 1–3 days. Cells were maintained in inositol-free DMEM medium, treated with the indicated inhibitor or DMSO for 1–2.5 h, and supplemented with 100 μCi ^3H-inositol (PerkinElmer) for 48 or 72 h, as indicated on each figure. Cells were then washed in PBS and lysed in 200 μL HCl (0.5 M), 250 μL of MeOH was added to each well of a 6-well plate (approximately 10^6 cells), followed by 125 μL of 2 M KCl. Lysates were scraped and sonicated on ice for three 1 min cycles. Inositol phosphate (IP) extracts were cleaned of lipids by adding 250 μL of CHCl3, vortexing and centrifuging samples for 2 min at 5000 rpm to separate upper aqueous and lower organic phases, upper phase contains soluble IPs. This extraction was repeated once. Samples were dried in a SpeedVac, resuspended in 10 mM ammonium phosphate (pH= 3.5), and filtered. HPLC separation and detection of the inositol species on the upper phase used a Partisphere SAX 4.6 mm × 250 mm column, eluted with 10 mM (buffer A) to 1.3 M (buffer B) ammonium phosphate (pH = 3.8) and online flow scintillation analyzer (FSA, PerkinElmer). Elution of [^32P]-labeled IP4, IP5, and IP6 standards confirmed the identity of each peak off the HPLC. Quantification represents three biologically independent metabolic labeling samples with error representing the standard deviation of the mean.

[4] = Pharmacokinetic studies in mice; assay type: in vivo, male CD1 mice
Experimental: All the procedures related to animal handling, care, and treatment in this study were performed according to guidelines approved by the Institutional Animal Care and Use Committee (IACUC) of Pharmaron (PK-R-06012023 and PK-M-07182023), following the guidance of the Association for Assessment and Accreditation of Laboratory Animal Care (AAALAC). A group of 3 male CD1 mice (2 for exploratory PK) were dosed intravenously (IV) or intraperitoneally (IP) with a solution formulation of the tested compounds in 10% NMP, 5% Solutol in normal saline (v/v/v, 10:5:85). From each mouse, blood samples ([…]) were collected from the orbital vein such that samples were obtained at 0.083, 0.25, 0.5, 1, 2, 4, 8, and 24 h post dose. At each time point, blood samples were collected from three mice in labeled microcentrifuge tubes containing EDTA-K2 as an anticoagulant. Plasma samples were separated by centrifugation of whole blood and stored at −75 ± 15 °C until bioanalysis. All samples were processed for analysis by precipitation using acetonitrile (ACN) and analyzed with a fit-for-purpose LC/MS/MS method (the below quantifiable limit (BLOQ) was 5.0 ng/mL). Pharmacokinetic parameters were calculated by a noncompartmental analysis model using WinNonlin 8.3.

S6Kb = assay: Protein kinase profiling, Mobility Shift Assay (Carna Biosciences); assay type: biochemical, human
Experimental: Protein kinase profiling of compound 14 was executed by Carna Biosciences. Briefly, compound 14 was prepared by dissolving it in dimethyl sulfoxide (DMSO) and then further diluting it in DMSO to a concentration of 25 μM. That stock solution was further diluted 25-fold with kinase assay buffer (20 mM HEPES, 0.01% Triton X-100, 2 mM DTT, pH 7.5) to make the final 1 μM compound 14 solution. Reference compounds for the assay controls were prepared similarly. The off-chip Mobility Shift Assay (MSA) was prepared with 5 μL of 4× compound solution, 5 μL of 4× substrate/ATP/metal solution, and 10 μL of 2× kinase solution, prepared with assay buffer (20 mM HEPES, 0.01% Triton X-100, 2 mM DTT, pH 7.5). The components were mixed and incubated in a polypropylene 384-well microplate for 1 h or 5 h at room temperature, depending on the kinase being tested. […]

[5] = male, CD1, mouse, plasma, IV, dose 2.75 mg/kg

IC50 ([1]; Kinase-Glo assay, 12.5 μM Ins(1,4,5)P3, 10 μM ATP, read-out: IC50 toward recombinant human IPMK): 32 ± 2.4 nM
IC50 ([1]; supplementary csv, read-out: IPMK IC50): 31.6 ± 2.4 nM
concentration of maximum IPMK inhibition [2]: 100 nM
Vss (L/kg) ([4]; IV, dose 2.75 mg/kg): increased
AUC(0-t) ([4]; male, CD1, mouse, plasma, 10 mg/kg via IV and IP administration (route of this value not stated), n = 3): 8.26 µM·h
AUC(0-t) [4, 5]: 4.6 µM·h
Cmax [4, 5]: 28.3 µM
clearance [4, 5]: 22.8 mL/min/kg
half-life [4, 5]: 117 min
Vd ([4]; male, CD1, mouse, plasma, IV, dose 2.75 mg/kg, read-out: Vss): 0.39 L/kg
bioavailability ([4]; male, CD1, mouse, plasma, intraperitoneal, 10 mg/kg, IP vs IV, n = 3): 82%
% Inhibition at 1.0 μM 14 (S6Kb): 9.4%
Structure (SMILES): c1cc(-c2onc3ccc(-c4nnn[nH]4)cc23)cc(C2CCN(C3CCC3)CC2)c1 [Compound 14, 3-(3-(1-Cyclobutylpiperidin-4-yl)phenyl)-5-(1H-tetrazol-5-yl)benzo[c]isoxazole]
decrease of InsP5 levels ([3]; 48 h): 50%
increase of InsP4 levels ([3]; 48 h): about 50%
level of InsP6 ([3]; 48 h): no change
IP6 levels ([3]; 72 h): did not change; also recorded: does not decrease
InsP4 levels ([3]; 72 h): rose slightly
InsP7 levels ([3]; 72 h): did not change; also recorded: does not decrease
